A word on the MIC: it is the lowest concentration that inhibits growth of the organism. A lower MIC goes with greater potency.

Values after ≈ are worked out from the molar mass of the structure shown. Values joined by “and” are separate entries in the source; they are usually repeats but may differ in a detail not shown here. Equal entries are not always repeated.

Some test systems named below: Escherichia coli K-12; Escherichia coli B; Staphylococcus aureus; Pseudomonas aeruginosa; Bacillus subtilis 168; Streptococcus mutans; Enterococcus faecalis; Acinetobacter baumannii; Enterococcus faecium; Escherichia coli BW25113.
Assay in all cases: ≥ marks a high value that may be exact or a test limit, other limits are often not marked, values filed in µg/mL are converted to µM
The subject of experiment [1] is Pseudomonas aeruginosa ATCC BAA-427.
Experiment [2] deals with Bacillus subtilis ATCC 6633.
In experiment [3] the test system is Klebsiella pneumoniae ATCC 27736.
In experiment [4] the test system is Micrococcus luteus CCM 144.
Experiment [5] deals with Candida albicans F7-39/IDE99.
The test system of experiment [6] is Pseudomonas aeruginosa ATCC 27853.

As to `CC[C@H](C)[C@H](NC(=O)[C@H](CCCN=C(N)N)NC(=O)[C@H](CCC(N)=O)NC(=O)[C@@H](NC(=O)[C@@H](NC(=O)[C@H](CCC(N)=O)NC(=O)[C@H](C)N)[C@@H](C)CC)C(C)C)C(=O)N[C@@H](CCCCN)C(=O)N[C@@H](CC(=O)O)C(=O)N[C@@H](Cc1ccccc1)C(=O)N[C@@H](CC(C)C)C(=O)N[C@@H](CCCN=C(N)N)C(N)=O` [AQIVQRIKDFLR], the MIC in the experiment on Escherichia coli K-12 was not below 240 µM.
On to `CC[C@H](C)[C@H](NC(=O)CNC(=O)[C@H](CCCN=C(N)N)NC(=O)[C@H](Cc1ccccc1)NC(=O)[C@@H](NC(=O)[C@H](Cc1cnc[nH]1)NC(=O)[C@H](Cc1cnc[nH]1)NC(=O)[C@H](Cc1ccccc1)NC(=O)[C@@H](N)Cc1ccccc1)[C@@H](C)CC)C(=O)N[C@H](C(=O)N[C@@H](Cc1cnc[nH]1)C(=O)N[C@H](C(=O)NCC(=O)N[C@@H](CCCCN)C(=O)N[C@H](C(=O)N[C@H](C(=O)N[C@@H](Cc1cnc[nH]1)C(=O)N[C@@H](CCCN=C(N)N)C(=O)N[C@@H](CC(C)C)C(=O)N[C@H](C(=O)N[C@H](C(=O)NCC(N)=O)[C@@H](C)O)C(C)C)[C@@H](C)CC)[C@@H](C)O)[C@@H](C)CC)C(C)C` [FFHHIFRGIVHIGKTIHRLVTG], for which the MIC in [1] turned out to be 4 µM (≈ 10.3 µg/mL); in experiment [2], 6 µM (≈ 15.5 µg/mL); in experiment [3], 3 µM (≈ 7.76 µg/mL).
On to `CC[C@H](C)[C@H](NC(=O)[C@H](CC(C)C)NC(=O)[C@H](CCCCN)NC(=O)[C@@H](NC(=O)[C@@H](NC(=O)[C@H](Cc1cnc[nH]1)NC(=O)[C@@H]1CCCN1C(=O)[C@H](CC(C)C)NC(=O)[C@@H](NC(=O)[C@H](CCCCN)NC(=O)[C@H](C)NC(=O)[C@H](CC(C)C)NC(=O)[C@H](CC(C)C)NC(=O)[C@H](CO)NC(=O)[C@H](C)NC(=O)[C@H](CCSC)NC(=O)CN)C(C)C)C(C)C)C(C)C)C(=O)N[C@@H](CCCCN)C(N)=O` [GMASLLAKVLPHVVKLIK], for which the MIC in [4] was 1.7 µM (≈ 3.26 µg/mL); with Escherichia coli B it was 3.7 µM (≈ 7.09 µg/mL); in [5], 25 µM (≈ 47.9 µg/mL); in the experiment on Staphylococcus aureus, 3.7 µM (≈ 7.09 µg/mL); with Pseudomonas aeruginosa, 31.7 µM (≈ 60.8 µg/mL); against Bacillus subtilis 168, 2.5 µM (≈ 4.79 µg/mL).
Regarding `CC[C@H](C)[C@H](N)C(=O)NCC(=O)N[C@@H](CC(C)C)C(=O)N[C@@H](CCCN=C(N)N)C(=O)NCC(=O)N[C@@H](CC(C)C)C(=O)NCC(=O)N[C@@H](CCCN=C(N)N)C(=O)N[C@@H](CCCCN)C(=O)N[C@H](C(=O)N[C@@H](C)C(=O)N[C@@H](CC(C)C)C(=O)N[C@H](C(=O)N[C@@H](Cc1cnc[nH]1)C(=O)N[C@@H](CCCCN)C(=O)N[C@@H](CCCCN)C(=O)N[C@@H](Cc1ccc(O)cc1)C(=O)NCC(=O)O)[C@@H](C)CC)[C@@H](C)CC` [IGLRGLGRKIALIHKKYG], the MIC in the experiment on Escherichia coli K-12 and against Bacillus subtilis 168 was not below 120 µM in each case.
`CC(C)C[C@H](NC(=O)[C@H](CC(C)C)NC(=O)[C@H](CCCCN)NC(=O)[C@H](CCCCN)NC(=O)[C@H](CC(C)C)NC(=O)[C@@H](N)CCCCN)C(=O)N[C@@H](CCCCN)C(=O)N[C@@H](CCCN=C(N)N)C(=O)N[C@@H](Cc1c[nH]c2ccccc12)C(=O)N[C@@H](CCCN=C(N)N)C(=O)N[C@@H](CCCN=C(N)N)C(=O)N[C@@H](Cc1c[nH]c2ccccc12)C(=O)N[C@@H](Cc1c[nH]c2ccccc12)C(=O)N[C@@H](CCCN=C(N)N)C(=O)O` [KLKKLLKRWRRWWR]: the MIC in the experiment on Streptococcus mutans was found to be 3.9 µM (≈ 8 µg/mL).
As for `CC[C@H](C)[C@H](NC(=O)[C@H](CCCCN)NC(=O)CNC(=O)[C@H](Cc1c[nH]c2ccccc12)NC(=O)[C@H](CC(N)=O)NC(=O)[C@@H](N)CCCCN)C(=O)N[C@@H](CC(C)C)C(=O)N[C@@H](CCCCN)C(=O)N[C@@H](Cc1cnc[nH]1)C(=O)N[C@H](C(=O)N[C@H](C(=O)N[C@@H](CCCCN)C(N)=O)[C@@H](C)CC)[C@@H](C)CC` [KNWGKILKHIIK], the minimum inhibitory concentration (MIC) in [4] was 4.5 µM (≈ 6.65 µg/mL); in the experiment with Escherichia coli B it was 11.3 µM (≈ 16.7 µg/mL); in experiment [5], 7.7 µM (≈ 11.4 µg/mL); against Staphylococcus aureus, 76.7 µM (≈ 113 µg/mL); in the experiment with Pseudomonas aeruginosa, 31.7 µM (≈ 46.8 µg/mL); against Bacillus subtilis 168, 5.8 µM (≈ 8.57 µg/mL).
`CC[C@H](C)[C@@H]1NC(=O)[C@H](CCCCN)NC(=O)[C@H](CCCCN)NC(=O)[C@@H]2CSSC[C@H](NC(=O)[C@H](C)NC(=O)[C@H](C(C)C)NC(=O)[C@@H](NC(=O)[C@@H](NC(=O)[C@@H](NC(=O)[C@H](CCCCN)NC(=O)[C@H](CCCCN)NC(=O)[C@@H](NC(=O)[C@H](CC(=O)O)NC(=O)[C@@H](N)CC(C)C)C(C)C)[C@@H](C)CC)[C@@H](C)CC)CSSC[C@@H](C(=O)N3CCC[C@H]3C(=O)N[C@@H](CCCCN)C(=O)O)NC1=O)C(=O)N[C@@H](CCCCN)C(=O)N[C@@H]([C@@H](C)CC)C(=O)N[C@@H](CCCN=C(N)N)C(=O)N1CCC[C@H]1C(=O)N[C@@H](CC(N)=O)C(=O)N1CCC[C@H]1C(=O)N[C@@H](C)C(=O)N2` [LDVKKIICVACKIRPNPACKKICPK]: the MIC in experiment [4] was 0.8 µM (≈ 2.22 µg/mL); against Escherichia coli B, not below 32.5 µM; in experiment [5] it was 18.7 µM (≈ 52 µg/mL); against Staphylococcus aureus, more than 100 µM; with Pseudomonas aeruginosa it was more than 100 µM; against Bacillus subtilis 168, 1.5 µM (≈ 4.17 µg/mL).
For the compound `CC[C@H](C)[C@H](NC(=O)[C@H](C)NC(=O)[C@H](CCCCN)NC(=O)[C@H](CC(C)C)NC(=O)[C@H](CCCCN)NC(=O)[C@@H](N)CC(C)C)C(=O)N[C@@H](C)C(=O)N[C@@H](C)C(=O)N[C@@H](CC(C)C)C(=O)N[C@@H](C)C(=O)N[C@@H](CCCCN)C(=O)N[C@@H](CCCCN)C(=O)N[C@@H](CCCCN)C(=O)N[C@@H](Cc1c[nH]c2ccccc12)C(N)=O` [LKLKAIAALAKKKW], the MIC was 15.2 µM (≈ 24 µg/mL) with Staphylococcus aureus; 10.1 µM (≈ 16 µg/mL) in the experiment on Pseudomonas aeruginosa; 40.5 µM and > 20.2 µM in experiment [6]; 7.59 µM (≈ 12 µg/mL) against Enterococcus faecalis; 5.06 µM (≈ 8 µg/mL) with Acinetobacter baumannii.
Consider `C[C@H](NC(=O)[C@H](CO)NC(=O)[C@H](C)NC(=O)[C@H](Cc1ccccc1)NC(=O)[C@H](Cc1c[nH]c2ccccc12)NC(=O)[C@H](Cc1c[nH]c2ccccc12)NC(=O)[C@H](Cc1c[nH]c2ccccc12)NC(=O)[C@H](CCCN=C(N)N)NC(=O)[C@H](CCCN=C(N)N)NC(=O)[C@@H](N)CCCN=C(N)N)C(=O)N[C@@H](CO)C(=O)N[C@@H](C)C(=O)N[C@@H](CCCN=C(N)N)C(=O)N[C@@H](CCCN=C(N)N)C(=O)N[C@@H](CCCN=C(N)N)C(=O)N[C@@H](Cc1c[nH]c2ccccc12)C(=O)N[C@@H](Cc1c[nH]c2ccccc12)C(=O)N[C@@H](Cc1c[nH]c2ccccc12)C(=O)N[C@@H](Cc1ccccc1)C(N)=O` [RRRWWWFASASARRRWWWF], for which, in the experiment with Streptococcus mutans, the MIC is 11.6 µM (≈ 32 µg/mL).
As for `CC(C)C[C@H](NC(=O)[C@H](CC(C)C)NC(=O)[C@H](CC(C)C)NC(=O)[C@H](CC(C)C)NC(=O)[C@H](CC(C)C)NC(=O)[C@H](CCCN=C(N)N)NC(=O)[C@H](Cc1c[nH]c2ccccc12)NC(=O)[C@@H](N)CCCN=C(N)N)C(=O)N[C@@H](CCCCN)C(=O)N[C@@H](CCCN=C(N)N)C(=O)N[C@@H](Cc1cnc[nH]1)C(=O)O` [RWRLLLLLKRH], the MIC in the experiment with Enterococcus faecium and in the experiment on Enterococcus faecalis was 23.5 µM (≈ 35.4 µg/mL) in each case.
With `CC[C@H](C)[C@H](NC(=O)[C@@H]1CCCN1C(=O)[C@H](Cc1c[nH]c2ccccc12)NC(=O)[C@H](CCCN=C(N)N)NC(=O)[C@H](Cc1c[nH]c2ccccc12)NC(=O)[C@@H](N)CCCN=C(N)N)C(=O)N[C@@H](CCCN=C(N)N)C(=O)N[C@@H](CCCN=C(N)N)C(=O)N[C@@H](CCCN=C(N)N)C(=O)N1CCC[C@H]1C(=O)N[C@H](C(=O)N[C@@H](CCCN=C(N)N)C(=O)N1CCC[C@H]1C(=O)N1CCC[C@H]1C(=O)N[C@@H](Cc1ccccc1)C(=O)N[C@@H](Cc1c[nH]c2ccccc12)C(=O)N[C@@H](CCCN=C(N)N)C(=O)O)[C@@H](C)CC` [RWRWPIRRRPIRPPFWR], in the experiment on Escherichia coli BW25113, the MIC is 4 µM (≈ 9.73 µg/mL).
As for `CC[C@H](C)[C@H](NC(=O)[C@H](CCCCN)NC(=O)[C@H](CC(C)C)NC(=O)[C@H](CC(C)C)NC(=O)[C@H](CCC(N)=O)NC(=O)[C@H](CCCCN)NC(=O)[C@@H](N)C(C)C)C(=O)N[C@@H](Cc1ccccc1)C(=O)N[C@@H](CC(N)=O)C(=O)N[C@@H](CCCN=C(N)N)C(=O)N[C@@H](Cc1ccccc1)C(N)=O` [VKQLLKIFNRF], in the experiment with Streptococcus mutans, the MIC stood at 31.8 µM (≈ 44.7 µg/mL).
On the same count and under the same terms, with `CC[C@H](C)[C@H](NC(=O)[C@H](Cc1cnc[nH]1)NC(=O)[C@H](CC(C)C)NC(=O)[C@H](CC(C)C)NC(=O)[C@@H](NC(=O)[C@H](CCCCN)NC(=O)[C@@H](N)C(C)C)[C@@H](C)O)C(=O)N[C@@H](Cc1ccccc1)C(=O)N[C@@H](CCC(N)=O)C(=O)N[C@@H](CCCN=C(N)N)C(=O)N[C@@H](Cc1ccccc1)C(N)=O` [VKTLLHIFQRF] the figure was not below 44.6 µM.

(Values after DBAASP.)
